Test results from US12714702B2, “Compositions and methods for treating or preventing pulmonary hypertension” (priority 2020, dated 2026).

Legend:
[1] = tested on: pulmonary arterioles of SU5416/hypoxia-induced PAH animals; test: SU5416/hypoxia model, muscularization, trichrome staining and medial wall thickness; type: in vivo, rat
Experimental: Adult male rats were injected with SU5416 (20 mg/kg) subcutaneously and were kept under hypoxia (10% O2) for 3 weeks. QA was administered once-a-day intraperitoneally at a dose of 10 mg/kg for 21 days starting from Day 1. […] Data represent mean±SD (n=4-5). *p<0.05.
At the end of treatment period with QA, animals were sacrificed. Chest was surgically opened to expose rat lungs. Lung tissues were collected, and blinded tissues were sectioned by Reveal Bio (San Diego, CA) at 5 μm thickness. 2 tissue sections for each animal were earmarked for Trichrome staining; and 8 more sections were provided blank for custom staining.
Tissue sections were stained using trichrome staining to visualize pulmonary arteries for all treatment and control groups. Stained lung sections were imaged using Zeiss Axio Scope A1 microscope equipped with Axiocam 506 color camera and Zeiss Zen 2.3 software. Medial wall thickness for similar sized pulmonary arteries was measured using a Motic BA210 microscope and measurements were made using Motic Image plus 2.0 software. Five pulmonary artery walls were analyzed per animal (n=2 to 5)
After 3 weeks, hemodynamic studies were performed.

ITCH/AIP4 E3 ligase = ITCH/AIP4 E3 ligase (Homo sapiens, UniProt Q96J02); test: ITCH/AIP4 E3 ligand activity assay, ubiquitin ELISA (UbiQuant); type: biochemical; settings: 20 μM dose
Experimental: The ligand activity inhibition by QA at multiple concentrations (0, 10, or 20 μM) in presence of ubiquitin was quantified.

bovine HAPASMC = test: Anti-proliferative efficacy in high-altitude bovine PASMC; type: cell-based; settings: inherently highly proliferating bovine HAPASMC, 1.5-5.0 μM, time- and concentration-dependent
Experimental: Data represent mean±SD (n=5) repeated over 3 experiments. *p<0.05.
(§1) Human or bovine PASMC were treated with varying concentrations of QA (1.5-, 3.1-, and 6.2-μM). Cellular proliferation was measured at day 1, day 3 and day 5 by following the manufacturer's protocol. Briefly, a reagent mix of nucleic acid stain and background suppressor were added in PBS followed by addition of the mix in treatment wells (100 μL/well). The plates were incubated at 37° C./5% CO2 for one hour followed by evaluation of fluorescence at 485 ex/535 em. Proliferation inhibition was analyzed relative to control wells on each time point. Data was averaged from two trials with n=6 for SMC II and one trial of n=4 for SMC III.
In-vitro studies to measure anti-proliferative activity of QA against pulmonary hypertension were performed using primary human PASMC (FIG. 3), primary bovine PASMC (FIG. 4) and high altitude PASMC (HAPASMC) (FIG. 4). HAPASMC, due to prolonged hypoxia exposure, are known to be hyper-proliferative in regular culture conditions, while hyper-proliferation was induced in PASMC cells by 24 hour serum starvation, or by exposure to 5-hydroxytryptamine (5-HT). […]

primary human PASMC = test: Standard cell proliferation, CyQUANT Direct; type: cell-based; settings: Day 3 and Day 5, single QA treatment at 3.1 and 6.2 μM
Experimental: (§2) Primary human PASMC were treated with QA up to 6.2 μM concentration. Cell proliferation was quantified by Cyquant Direct.
Cellular proliferation for diseased IPAH SMC II (Patient ID: L164) cells was evaluated using CyQUANT™ Direct Cell Proliferation Assay (ThermoFisher Scientific, Waltham, MA, USA). Briefly, upon 90% confluency, SMCs were harvested and seeded in TC-treated 96-well plates at a density of 1000 cells/well and were allowed to adhere overnight.
as §1
In-vitro studies to measure anti-proliferative activity of QA against pulmonary hypertension were performed using primary human PASMC (FIG. 3), primary bovine PASMC (FIG. 4) and high altitude PASMC (HAPASMC) (FIG. 4). […]

[2] = tested on: serum starved human PASMC; test: Proliferation after cell starvation, CyQUANT Direct; type: cell-based; settings: Day 5 at 3.1 and 6.2 μM, Day 3 at 6.2 μM
Experimental: as §2
Briefly, diseased IPAH SMC II cells were seeded in TC-treated 96 well plates in FBS-rich medium and were allowed to adhere overnight. Following day, FBS-rich media was replaced with FBS-Starved media (0% FBS). Cells were further incubated at 37° C./5% CO2 for 24 hours followed by treatments with varying concentrations of QA (1.5-, 3.1-, and 6.2-μM) with dilutions being made in FBS-Starved media. Cellular proliferation was measured as described herein.
In-vitro studies to measure anti-proliferative activity of QA against pulmonary hypertension were performed using primary human PASMC (FIG. 3), primary bovine PASMC (FIG. 4) and high altitude PASMC (HAPASMC) (FIG. 4). HAPASMC, due to prolonged hypoxia exposure, are known to be hyper-proliferative in regular culture conditions, while hyper-proliferation was induced in PASMC cells by 24 hour serum starvation, or by exposure to 5-hydroxytryptamine (5-HT). […] As hyper-proliferation of vascular smooth muscle cells is one of the primary underlying causes for clinical progression of PH pathogenesis, these experiments highlight the therapeutic potential of QA in reversing PH symptoms and progression at non-toxic doses.

Sequence of ITCH/AIP4 E3 ligase (Q96J02 whole entry): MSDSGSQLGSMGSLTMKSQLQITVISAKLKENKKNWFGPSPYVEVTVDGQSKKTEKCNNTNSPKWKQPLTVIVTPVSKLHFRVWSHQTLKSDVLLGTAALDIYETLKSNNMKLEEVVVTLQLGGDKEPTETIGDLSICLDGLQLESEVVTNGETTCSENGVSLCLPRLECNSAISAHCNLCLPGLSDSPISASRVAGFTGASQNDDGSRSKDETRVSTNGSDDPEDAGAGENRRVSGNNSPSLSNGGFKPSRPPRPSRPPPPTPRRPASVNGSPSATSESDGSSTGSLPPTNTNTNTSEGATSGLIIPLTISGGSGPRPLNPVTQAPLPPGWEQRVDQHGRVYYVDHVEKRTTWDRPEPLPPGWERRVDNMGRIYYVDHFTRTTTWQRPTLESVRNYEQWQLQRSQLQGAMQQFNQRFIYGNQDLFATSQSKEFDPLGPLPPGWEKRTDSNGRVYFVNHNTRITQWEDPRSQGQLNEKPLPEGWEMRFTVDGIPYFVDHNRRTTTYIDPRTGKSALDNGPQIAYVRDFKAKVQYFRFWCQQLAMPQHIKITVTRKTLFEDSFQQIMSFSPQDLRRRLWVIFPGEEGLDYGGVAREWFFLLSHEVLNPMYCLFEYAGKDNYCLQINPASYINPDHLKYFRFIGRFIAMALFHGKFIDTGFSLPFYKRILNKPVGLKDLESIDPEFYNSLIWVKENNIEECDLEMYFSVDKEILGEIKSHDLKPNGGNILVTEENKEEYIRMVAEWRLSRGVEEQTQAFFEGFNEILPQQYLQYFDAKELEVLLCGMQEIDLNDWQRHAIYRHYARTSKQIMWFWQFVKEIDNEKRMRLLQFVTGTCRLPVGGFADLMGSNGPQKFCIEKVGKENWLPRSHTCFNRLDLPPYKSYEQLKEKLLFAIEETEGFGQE

For `CCN(CC)CCCC(C)Nc1c2ccc(Cl)cc2nc2ccc(OC)cc12` (centres unmarked) [QA, quinacrine], the “medial wall thickness in pulmonary arterioles” value ([1]; SU5416/hypoxia rats (FIG. 14D)) was “significant reduction”, the “vessel muscularization (less completely muscularized blood vessels than control)” value ([1]; SU5416/hypoxia rats, pulmonary arterioles) was 3.5 folds and the “collagen and muscular deposition in pulmonary arterioles” value ([1]; SU5416/hypoxia rats, trichrome staining) was “significant reduction”. The “reduction in medial wall thickness of pulmonary arteries” value ([1]; compared to SU5416/hypoxia-induced PAH animal tissue sections (FIG. 16)) was “about 2 fold”, the “reduction in total polyubiquitination resulting from ITCH/AIP4 activity” value (ITCH/AIP4 E3 ligase) was ~ 25% and the proliferation (bovine HAPASMC) was “significantly inhibits proliferation”. The cellular hyper-proliferation (primary human PASMC) was “Significant reduction” and the cellular hyper-proliferation [2] was “Significant reduction”.
